Values of other authors, collected in US9848955B2, “Resorbable pouches for implantable medical devices” (TYRX Inc., priority 2006, dated 2017).

Tested on: myofibroblast formation
Conditions: animal studies of capsular contracture with breast implants [Ajmal et al. (2003)]

In the case of O=S(=O)([O-])CCS.[Na+] [Mesna, sodium 2-mercaptoethane sulfonate], the myofibroblast formation is given as “diminish myofibroblast formation”.
